Laboratory results published in patent US10369123B2, “Perk activator for the treatment of neurodegenerative diseases” (DEUTSCHES ZENTRUM FÜR NEURODEGENERATIVE ERKRANKUNGEN E.V. …, priority 2014, dated 2019).

Experiments:
[1] = system: 4R-tau and 3R-tau isoforms; assay: Western blot of 3R-/4R-tau isoforms, annonacin model; assay type: cell-based, human; conditions: annonacin 25 nM + PERK activator, 48 h
Method: Nunc™ Nunclon™ Delta 6-well (for protein and mRNA) or 48-well (for cell assays) plates (Thermo Fisher Scientific, Waltham, Mass., USA) were coated with 100 μg/ml poly-L-lysine (Sigma-Aldrich, St. Louis, Mo., USA) and 5 μg/ml fibronectin (Sigma-Aldrich). LUHMES (Lund Human Mesencephalic) cells, derived from human embryonic ventral mesencephalic cells by conditional immortalization (Tet-off v-myc over-expression) were seeded out in a concentration of 130,000 cells/cm^2 to achieve a confluence of 50%. They were then differentiated for 8 days in a medium of DMEM/F12 (Sigma-Aldrich), 1 μg/ml tetracycline, […] and 490 μg/ml dbcAMP into post-mitotic neurons with a dopaminergic phenotype (Lotharius et al. 2005). […]
Protein was extracted by scraping the cells from the culture plate with Mammalian Protein Extraction Reagent (M-PER, Thermo Fisher Scientific) and 1× cOmplete Protease Inhibitor Cocktail Tablets (Hoffmann-La Roche, Basel, Switzerland) and 1× PhosSTOP Phosphatase Inhibitor Cocktail Tablets (Hoffmann-La Roche). […] Protein concentrations were determined using the BCA kit (Thermo Fisher Scientific) by heating the samples at 60° C. for 30 min and measuring the absorption on the NanoDrop 2000c Spectrophotometer (Thermo Fisher Scientific). […]

LUHMES neurons = assay: Morphological inspection and counts of viable cells; assay type: cell-based, human; conditions: co-treatment with PERK activator
Method: Nunc™ Nunclon™ Delta 6-well (for protein and mRNA) or 48-well (for cell assays) plates (Thermo Fisher Scientific, Waltham, Mass., USA) were coated with 100 μg/ml poly-L-lysine (Sigma-Aldrich, St. Louis, Mo., USA) and 5 μg/ml fibronectin (Sigma-Aldrich). LUHMES (Lund Human Mesencephalic) cells, derived from human embryonic ventral mesencephalic cells by conditional immortalization (Tet-off v-myc over-expression) were seeded out in a concentration of 130,000 cells/cm^2 to achieve a confluence of 50%. They were then differentiated for 8 days in a medium of DMEM/F12 (Sigma-Aldrich), 1 μg/ml tetracycline, […] and 490 μg/ml dbcAMP into post-mitotic neurons with a dopaminergic phenotype (Lotharius et al. 2005).
For all experiments with annonacin, the medium was replaced during the intoxication period with new medium containing glucose levels reduced to 250 μM, i.e. the physiological concentration in the human brain.
The protection by the PERK activator against annonacin and 4R-tau protein overexpression was also evident on morphological inspection of the cells. […] Lentiviral 4R-tau overexpression had similar effects. […] Cell counts of viable cells with intact nuclear and somatic morphology were counted in randomly selected 1300×1000 sized areas in 4 biological replicates each, confirming the protective effects of Pa.

[2] = system: paired helical filament tau (AT180); assay: Immunohistochemistry of P301S mouse hippocampus; assay type: in vivo; conditions: P301S mice, 2 mg/kg i.p. once daily for 6 weeks from 17 weeks of age, vs saline
Method: For the efficacy trial in the late disease stage (Xu et al. 2014), P301S mice and wild type littermates received once daily i.p. injections of 2 mg/kg CCT020312 or saline from 17 to 22 weeks of age (n=12 for CCT020312 treated P301S mice, n=9 for other groups); they were analyzed with the Rotarod test in the 23rd week of age.
Twelve hours after the last injection, animals were anesthetized by i.p. injections of pentobarbital at (100 mg/kg) and transcardially perfused with 0.1 M phosphate buffer for 2 min, then fixed for 10 min with 4% paraformaldehyde. Post-fixation of the brain was done in 4% paraformaldehyde at 4° C. for 48 h. Their brains were prepared for histological analysis, as described (Xu et al. 2014). For the immunoblot analysis in P301S mice and wild type mice were sacrificed by cervical dislocation, their brains were frozen on dry ice and stored at −80° C. for Western blot analysis.
Fixed brains (n=6 per group) were cut into 30 μm-thickness of coronal sections with a cryomicrotome (CM3050 S, Leica). […]

## CCN(CC)CCC(=O)N1N=C(c2c(-c3ccccc3)c3cc(Br)ccc3[nH]c2=O)CC1c1ccc(Br)cc1 (stereo not drawn) [CCT020312, 6-bromo-3-[5-(4-bromo-phenyl)-1-(3-diethylamino-propionyl)-4,5-dihydro-1H-pyrazol-3-yl]-4-phenyl-1H-quinolin-2-one]
[1]
  4R-tau protein amount: reduced
LUHMES neurons
  number of viable cells: toxicity of annonacin and 4R-tau overexpression: mitigated these effects
[2]
  AT180-immunoreactivity in the hippocampal region, histology: decreased
